{"source": "patent US20240358693A1", "about": "“METHODS OF TREATING PAIN” (Aisa Pharma, Inc., priority 2023, published 2024)", "system": "participants with SSc-RP", "assay": "Scleroderma Health Assessment Questionnaire (SHAQ): disability indices and visual analog scales", "type": "in vivo, human", "source_text": "The standard, validated, patient reported outcome measures tool for SSc patients, the Scleroderma Health Assessment Questionnaire (SHAQ), will be used to assess the participant qualify of life. Details are attached in the Appendix. The participant quality of life will be scored, and a disability index calculated for each questionnaire completed by the patient at Screening and each in-clinic visit. The absolute change in participant quality of life from baseline to the end of each dosing period will be calculated similar to frequency data as before.\nThe SHAQ includes a Raynaud's VAS, which will be reported at screening and each in-clinic visit. The absolute change in Raynaud-VAS, assessed by the participants response to the SHAQ question ‘In the past 7 days, how much have your Raynaud's interfered with your daily activities?’ at baseline and the end of each dosing period will be calculated similar to frequency data as before.\nThe SHAQ is used to calculate a Disability Index to assess the participant qualify of life. The eight categories assessed by the Disability Index are 1) dressing and grooming, 2) arising, 3) eating, 4) walking, 5) hygiene, 6) reach, 7) grip, and 8) common daily activities. For each of these categories, patients report the amount of difficulty they have in performing two or three specific activities.\nThere are four possible responses for the Disability Index questions: • Without any difficulty=0 • With some difficulty=1 • With much difficulty=2 • Unable to do=3. • The highest score reported by the patient for any component question of the eight categories determines the score for that category. • If a component question is left blank or the response is too ambiguous to assign a score, then the score for that category is determined by the remaining completed question(s). • If all component questions are blank or if more than one answer is given, then follow up with the respondent is required. • If the respondent's mark is between the response columns, then move it to the closest one. If it's directly between the two, move it to the higher one.\nEach of the disability items on the SHAQ has a companion aids/devices variable that is used to record what type(s) of assistance, if any, the participant uses for his/her usual activities. These variables (see below) are coded as follows: • 0=No assistance is needed. • 1=A special device is used by the patient in his/her usual activities. • 2=The patient usually needs help from another person. • 3=The patient usually needs BOTH a special device AND help from another person.\nThe scoring variables and scoring rules permit the computation of two disability indices, the Standard Disability Index and the Alternative Disability Index.\nThis question results in a new set of category scores that are computed by adjusting the score for each category, if necessary, based on the patient's use of an aid or device or assistance for that category. If either devices and/or help from another person are checked for a category, the score is set to “2”, unless the score is already “3” (i.e., scores of “0” or “1” are increased to “2”). For example, if the highest score for the dressing category is “1”, and the patient says they use a device for dressing, the computed category score would be “2”. The sum of the computed categories scores is then calculated and divided by the number of categories answered. This gives a score in the 0 to 3 range.\nThe aid and device variables are not used to calculate the alternative disability index; it is calculated by adding the scores for each of the categories and dividing by the number of categories answered. This gives a score in the 0 to 3 range.\nThe standard, validated, patient reported outcome measures tool for SSc patients, the SHAQ, was collected at the time points specified in the study schedules (FIG. 2 and FIGS. 4A and 4B) to assess the participant's quality of life. The SHAQ included a Raynaud's VAS that will also be reported separately.", "key": {"[1]": {"conditions": "Cilnidipine 20 mg (N = 3), patients with diagnosis of SSc, sensitivity analysis, Modified ITT, Part A"}, "[2]": {"conditions": "Cilnidipine 20 mg (n = 3), Table R"}, "[3]": {"conditions": "Cilnidipine 20 mg (n = 3), mITT population"}, "[4]": {"conditions": "Cilnidipine 20 mg, Day 12, PP Population Part A, SSc patients"}, "[5]": {"conditions": "Cilnidipine 20 mg, Day 12, PP Population, Part A"}, "[6]": {"conditions": "Cilnidipine 20 mg, PP Population Part A, SSc patients"}}}
{"smiles": "COCCOC(=O)C1=C(C)NC(C)=C(C(=O)OC/C=C/c2ccccc2)C1c1cccc([N+](=O)[O-])c1", "note": "(centres unmarked) [Cilnidipine, cilnidipine]", "values": [{"measurement": "SHAQ Standard Disability Index: Change from Baseline, Median", "setting": "[1]", "result": "−0.125"}, {"measurement": "SHAQ Standard Disability Index: Day 12, Mean", "setting": "[1]", "result": 0.125}, {"measurement": "SHAQ Standard Disability Index: Day 12, Median", "setting": "[1]", "result": 0.125}, {"measurement": "SHAQ Standard Disability Index: Percent Change from Baseline, Mean", "setting": "[1]", "result": "−50.00", "unit": "%"}, {"measurement": "SHAQ Standard Disability Index: Percent Change from Baseline, Median", "setting": "[1]", "result": "−50.00", "unit": "%"}, {"measurement": "Alternative disability index, improvement", "setting": "[2]", "result": 42, "unit": "% improvement"}, {"measurement": "Standard disability index, improvement", "setting": "[2]", "result": 50, "unit": "% improvement"}, {"measurement": "VAS - Breathing problems, improvement", "setting": "[2]", "result": 75, "unit": "% improvement*"}, {"measurement": "VAS - Raynaud's, improvement", "setting": "[2]", "result": 55, "unit": "% improvement"}, {"measurement": "VAS Overall Disease Severity, improvement", "setting": "[2]", "result": 63, "unit": "% improvement"}, {"measurement": "VAS- PAIN, improvement", "setting": "Cilnidipine 20 mg (n = 3), Table R, baseline 2.17 on a 0-10 VAS", "result": 53, "unit": "% improvement*"}, {"measurement": "SHAQ % change VAS Raynauds", "setting": "[3]", "result": "−49", "unit": "%"}, {"measurement": "SHAQ % change in Alternative Disability Index", "setting": "[3]", "result": "−42", "unit": "%"}, {"measurement": "SHAQ % change in Pain", "setting": "[3]", "result": "−53", "unit": "%"}, {"measurement": "SHAQ % change in Standard Disability Index", "setting": "[3]", "result": "−50", "unit": "%"}, {"measurement": "SHAQ % change overall SSc Disease Severity", "setting": "[3]", "result": "−63", "unit": "%"}, {"measurement": "SHAQ % improvement in Breathing (median)", "setting": "[3]", "result": 67, "unit": "%"}, {"measurement": "SHAQ % improvement in VAS Digital Ulcers", "setting": "[3]", "result": 35, "unit": "%"}, {"measurement": "SHAQ Visual Analogue Scale - Breathing Problems, Change from Baseline, Mean", "setting": "[4]", "result": "−0.475"}, {"measurement": "SHAQ Visual Analogue Scale - Breathing Problems, Change from Baseline, Median", "setting": "[4]", "result": "−0.250"}, {"measurement": "SHAQ Visual Analogue Scale - Breathing Problems, Percent Change from Baseline, Mean", "setting": "[4]", "result": 3.73, "unit": "%"}, {"measurement": "SHAQ Visual Analogue Scale - Breathing Problems, Percent Change from Baseline, Median", "setting": "[4]", "result": "−17.54", "unit": "%"}, {"measurement": "SHAQ Visual Analogue Scale - Finger Ulcers, Change from Baseline, Mean", "setting": "[4]", "result": "−0.933"}, {"measurement": "SHAQ Visual Analogue Scale - Finger Ulcers, Change from Baseline, Median", "setting": "[4]", "result": 0.000}, {"measurement": "SHAQ Visual Analogue Scale - Finger Ulcers, Percent Change from Baseline, Mean", "setting": "[4]", "result": 35.29, "unit": "%"}, {"measurement": "SHAQ Visual Analogue Scale - Finger Ulcers, Percent Change from Baseline, Median", "setting": "[4]", "result": 35.29, "unit": "%"}, {"measurement": "SHAQ Visual Analogue Scale - Intestinal Problems, Change from Baseline, Mean", "setting": "[4]", "result": 0.150}, {"measurement": "SHAQ Visual Analogue Scale - Intestinal Problems, Change from Baseline, Median", "setting": "[4]", "result": 0.150}, {"measurement": "SHAQ Visual Analogue Scale - Intestinal Problems, Percent Change from Baseline, Mean", "setting": "[4]", "result": "−10.00", "unit": "%"}, {"measurement": "SHAQ Visual Analogue Scale - Intestinal Problems, Percent Change from Baseline, Median", "setting": "[4]", "result": 30.00, "unit": "%"}, {"measurement": "SHAQ Visual Analogue Scale - Overall Disease Severity, Change from Baseline, Mean", "setting": "[4]", "result": "−2.000"}, {"measurement": "SHAQ Visual Analogue Scale - Overall Disease Severity, Change from Baseline, Median", "setting": "[4]", "result": "−1.700"}, {"measurement": "SHAQ Visual Analogue Scale - Overall Disease Severity, Percent Change from Baseline, Mean", "setting": "[4]", "result": "−64.20", "unit": "%"}, {"measurement": "SHAQ Visual Analogue Scale - Overall Disease Severity, Percent Change from Baseline, Median", "setting": "[4]", "result": "−64.44", "unit": "%"}, {"measurement": "SHAQ Visual Analogue Scale - Pain, Change from Baseline, Mean", "setting": "[4]", "result": "−0.650"}, {"measurement": "SHAQ Visual Analogue Scale - Pain, Change from Baseline, Median", "setting": "[4]", "result": "−0.650"}, {"measurement": "SHAQ Visual Analogue Scale - Pain, Percent Change from Baseline, Mean", "setting": "[4]", "result": "−34.56", "unit": "%"}, {"measurement": "SHAQ Visual Analogue Scale - Pain, Percent Change from Baseline, Median", "setting": "[4]", "result": "−51.06", "unit": "%"}, {"measurement": "SHAQ Visual Analogue Scale - Raynaud's, Change from Baseline, Mean", "setting": "[4]", "result": "−1.200"}, {"measurement": "SHAQ Visual Analogue Scale - Raynaud's, Change from Baseline, Median", "setting": "[4]", "result": "−1.050"}, {"measurement": "SHAQ Visual Analogue Scale - Raynaud's, Percent Change from Baseline, Mean", "setting": "[4]", "result": "−41.11", "unit": "%"}, {"measurement": "SHAQ Visual Analogue Scale - Raynaud's, Percent Change from Baseline, Median", "setting": "[4]", "result": "−38.67", "unit": "%"}, {"measurement": "SHAQ Alternative Disability Index: Change from Baseline, Mean", "setting": "[5]", "result": 0.000}, {"measurement": "SHAQ Alternative Disability Index: Change from Baseline, Median", "setting": "[5]", "result": "−0.063"}, {"measurement": "SHAQ Alternative Disability Index: In-Clinic Visit (Day 12), Mean", "setting": "[5]", "result": 0.219}, {"measurement": "SHAQ Alternative Disability Index: In-Clinic Visit (Day 12), Median", "setting": "[5]", "result": 0.188}, {"measurement": "SHAQ Alternative Disability Index: Percent Change from Baseline, Mean", "setting": "[5]", "result": 5.56, "unit": "%"}, {"measurement": "SHAQ Alternative Disability Index: Percent Change from Baseline, Median", "setting": "[5]", "result": "−33.33", "unit": "%"}, {"measurement": "SHAQ Standard Disability Index: Change from Baseline, Mean", "setting": "[5]", "result": "−0.063"}, {"measurement": "SHAQ Standard Disability Index: Change from Baseline, Median", "setting": "[5]", "result": "−0.063"}, {"measurement": "SHAQ Standard Disability Index: In-Clinic Visit (Day 12), Mean", "setting": "[5]", "result": 0.281}, {"measurement": "SHAQ Standard Disability Index: In-Clinic Visit (Day 12), Median", "setting": "[5]", "result": 0.188}, {"measurement": "SHAQ Standard Disability Index: Percent Change from Baseline, Mean", "setting": "[5]", "result": "−26.67", "unit": "%"}, {"measurement": "SHAQ Standard Disability Index: Percent Change from Baseline, Median", "setting": "[5]", "result": "−33.33", "unit": "%"}, {"measurement": "SHAQ Visual Analogue Scale - Pain: Change from Baseline, Mean", "setting": "[5]", "result": "−0.650"}, {"measurement": "SHAQ Visual Analogue Scale - Pain: Change from Baseline, Median", "setting": "[5]", "result": "−0.650"}, {"measurement": "SHAQ Visual Analogue Scale - Pain: In-Clinic Visit (Day 12), Mean", "setting": "[5]", "result": 1.875}, {"measurement": "SHAQ Visual Analogue Scale - Pain: In-Clinic Visit (Day 12), Median", "setting": "[5]", "result": 1.400}, {"measurement": "SHAQ Visual Analogue Scale - Pain: Percent Change from Baseline, Mean", "setting": "[5]", "result": "−34.56", "unit": "%"}, {"measurement": "SHAQ Visual Analogue Scale - Pain: Percent Change from Baseline, Median", "setting": "[5]", "result": "−51.06", "unit": "%"}, {"measurement": "SHAQ Visual Analogue Scale - Breathing Problems, In-Clinic Visit (Day 12), Mean", "setting": "[6]", "result": 0.850}, {"measurement": "SHAQ Visual Analogue Scale - Breathing Problems, In-Clinic Visit (Day 12), Median", "setting": "[6]", "result": 0.450}]}
